# Experimental data published in patent US11974976B2, “Animal feeds and feed premixes containing betaine hydrochloride and a phytase” (Rural Chemical Industries (AUST) PTY LTD, priority 2013, dated 2024).
# Structures can show the parent of a compound that is named as a salt. Marks after values point to notes of the source that are not given here.
# Tests used:
# Assay type in all cases: in vivo, broiler chicks
# [1] = tested on: male Ross 308 chicks; experiment: Growth performance of broilers (weight gain, feed intake, feed conversion); conditions: for Feed efficiency: feed conversion ratio; for Feed efficiency / Feed intake / Weight gain / Gain-corrected FCR: phytase 500 FTU/kg, betaine 2.75 g/kg
# Method: (§1) The composition and nutrient specifications of the three basal starter (1-16 days post-hatch) and finisher (17-37 days post-hatch) diets are shown in Table 1. An NSP-degrading enzyme (Econase XT) was included across all the wheat-based diets to reflect standard practice and the finisher diets contained 20 g/kg Celite as an acid insoluble ash dietary marker. The starter diets were fed as mash, while the finisher diets were steam-pelleted at a conditioning temperature of 85° C. The NC1 diets were the ‘phytase-modified’ diets with formulated with reductions of 1.4 g/kg Ca and 1.5 g/kg P in the starter diets, which mainly stemmed from the elimination of dicalcium phosphate. The corresponding reductions in the finisher diets were 1.2 g/kg Ca and 1.4/kg P. The NC2 diets were the ‘betaine-modified’ diets in which energy density, methionine and choline levels were reduced mainly by lower inclusion levels of canola oil and synthetic methionine and the elimination of choline chloride relative to the PC diets. The energy densities were reduced from 12.55 to 12.24 MJ/kg in the starter diets and from 12.97 to 12.66 MJ/kg in the finisher diets. Methionine levels were reduced from 4.44 to 3.19 g/kg in the starter diets and from 4.18 to 2.93 g/kg in the finisher diets. Exogenous phytase (Quantum® Blue; AB Vista) was included in the relevant diets at 100 g per tonne or 500 FTU/kg phytase activity and, similarly, betaine HCl (Hi Beta″, 970 g/kg betaine hydrochloride; Rural Chemical Industries) was included in the diets at 2.75 g/kg.
# (§2) The parameters evaluated included growth performance (weight gains, feed intakes, feed conversion ratios; FCR) from 1 to 16, 17 to 37 and 1 to 37 days post-hatch, 1 to 37 days weight gain-corrected FCR, mortality/cull rates, percentage toe ash, nitrogen (N) excretion and nutrient utilisation. Nutrient utilisation included apparent metabolisable energy (AME), expressed as both MJ/kg and MJ/day, N retention and N-corrected AME (AMEn). Also, breast weights in absolute and relative (% yield) terms, abdominal fat pad weights and pH of gizzard contents were determined. However, for reasons of practical expediency, absolute breast weights were determined on a ‘bone-in’ basis from birds that had not been de-feathered and this approach inflates both the absolute weight and yield; nevertheless, the data remains indicative. The experimental data was obtained and calculated via standard procedures followed by the Poultry Research Foundation. While the various procedures are not detailed in this report the majority of them have been described in detail (Selle et al., 2003b) previously.
# (§3) The experimental data was statistically analysed as a 3×2×2 factorial array of dietary treatments. That is diet type (PC, NC1, NC2), without and with the addition of phytase, without and with the addition of betaine HCl. Each of the 12 dietary treatments was offered to 8 replicate cages of 6 birds or a total of 96 cages and 576 birds (male Ross 308 chicks). The IBM® SPSS® Statistics 20 program was used to analyse experimental data and the study complied with specific guidelines of the Animal Ethics Committee of Sydney University.
# [2] = tested on: male Ross 308 chicks; experiment: Carcass traits (breast weight, breast meat yield, abdominal fat pad weight); conditions: for Breast weight: bone-in; for Breast weight / Breast meat yield / Fat pad weight: phytase 500 FTU/kg, betaine 2.75 g/kg
# Method: as §1, §2, §3
# [3] = tested on: male Ross 308 chicks; experiment: Bone mineralisation (percentage toe ash); conditions: phytase 500 FTU/kg, betaine 2.75 g/kg
# Method: as §1, §2
# The experimental data was statistically analysed as a 3×2×2 factorial array of dietary treatments. […]
# [4] = NC1 diets, 1 to 16 days post-hatch
# [5] = NC1 diets, 1 to 37 days post-hatch
# [6] = NC1 diets, 17 to 37 days post-hatch
# [7] = NC2 diets, 1 to 16 days post-hatch
# [8] = NC2 diets, 1 to 37 days post-hatch
# [9] = NC2 diets, 17 to 37 days post-hatch
# [10] = PC diets, 1 to 16 days post-hatch
# [11] = PC diets, 1 to 37 days post-hatch
# [12] = PC diets, 17 to 37 days post-hatch
# [13] = main effect across diets, 1 to 16 days post-hatch
# [14] = main effect across diets, 1 to 37 days post-hatch
# [15] = main effect across diets, 17 to 37 days post-hatch
# [16] = main effect, 17 to 37 days (finisher phase)
# [17] = main effect across diets, hydrochloride
# [18] = main effect across diets, listed as betaine HCl, hydrochloride
compound,measurement,setting,value
"C[N+](C)(C)CC(=O)O [Betaine, betaine hydrochloride]","Weight gain, phytase x betaine interaction mean","[1]; 1 to 37 days, across diet types",2202 g/bird
same,"Weight gain, phytase x betaine interaction mean","[1]; 17 to 37 days, across diet types",1797 g/bird
same,Depression of weight gain versus non-supplemented diets,"[1]; 17 to 37 days, betaine HCl alone, across diet types",7.70%
same,Feed efficiency,[1]; [4],1.414
same,Feed intake,[1]; [4],556 g/bird
same,Weight gain,[1]; [4],395 g/bird
same,"Weight gain, two-way interaction mean (diet type x additive)","[1]; NC1 diets, 1 to 37 days",2437 g/bird
same,Feed efficiency,[1]; [5],1.732
same,Feed intake,[1]; [5],3478 g/bird
same,Weight gain,[1]; [5],2012 g/bird
same,Gain-corrected FCR,"[1]; NC1 diets, 1 to 37 days",1.858 g/g
same,Increase in weight gain on addition to diet,"[1]; NC1 diets, 1 to 37 days, two-way interaction",0.61%
same,"Weight gain, two-way interaction mean (diet type x additive)","[1]; NC1 diets, 17 to 37 days",1737 g/bird
same,Feed efficiency,[1]; [6],1.811
same,Feed intake,[1]; [6],2923 g/bird
same,Weight gain,[1]; [6],1618 g/bird
same,Feed efficiency,[1]; [7],1.394
same,Feed intake,[1]; [7],523 g/bird
same,Weight gain,[1]; [7],377 g/bird
same,Feed efficiency,[1]; [8],1.641
same,Feed intake,[1]; [8],3728 g/bird
same,Weight gain,[1]; [8],2272 g/bird
same,Gain-corrected FCR,"[1]; NC2 diets, 1 to 37 days",1.663 g/g
same,Depression of weight gain on addition to diet,"[1]; NC2 diets, 1 to 37 days, two-way interaction",5.29%
same,Feed efficiency,[1]; [9],1.691
same,Feed intake,[1]; [9],3205 g/bird
same,Weight gain,[1]; [9],1896 g/bird
same,Depression of weight gain on addition to diet,"[1]; NC2 diets, 17 to 37 days, two-way interaction",6.27%
same,Feed efficiency,[1]; [10],1.334
same,Feed intake,[1]; [10],591 g/bird
same,Weight gain,[1]; [10],444 g/bird
same,Feed efficiency,[1]; [11],1.601
same,Feed intake,[1]; [11],3714 g/bird
same,Weight gain,[1]; [11],2321 g/bird
same,Gain-corrected FCR,"[1]; PC diets, 1 to 37 days",1.604 g/g
same,Depression of weight gain on addition to diet,"[1]; PC diets, 1 to 37 days, two-way interaction",4.90%
same,Feed efficiency,[1]; [12],1.665
same,Feed intake,[1]; [12],3123 g/bird
same,Weight gain,[1]; [12],1878 g/bird
same,Depression of weight gain on addition to diet,"[1]; PC diets, 17 to 37 days, two-way interaction",6.35%
same,Feed efficiency,"[1]; main effect across diets, 1 to 16 days post-hatch, hydrochloride",1.380^b
same,Feed efficiency,"[1]; main effect across diets, 1 to 16 days post-hatch, listed as Betaine HCl, hydrochloride",1.380
same,Feed intake,[1]; [13],567 g/bird
same,Weight gain,[1]; [13],413 g/bird
same,Feed efficiency,"[1]; main effect across diets, 1 to 37 days post-hatch, hydrochloride",1.647
same,Feed efficiency,"[1]; main effect across diets, 1 to 37 days post-hatch, listed as betaine HCl, hydrochloride",no significant impact
same,Feed intake,[1]; [14],3756 g/bird
same,Weight gain,[1]; [14],2288 g/bird
same,Gain-corrected FCR,"[1]; main effect across diets, 1 to 37 days, hydrochloride",1.663^a g/g
same,Gain-corrected FCR,"[1]; main effect across diets, 1 to 37 days, listed as betaine HCl, hydrochloride",1.663 g/g
same,Feed efficiency,"[1]; main effect across diets, 17 to 37 days post-hatch, hydrochloride",1.707^b
same,Feed efficiency,"[1]; main effect across diets, 17 to 37 days post-hatch, listed as betaine HCl, hydrochloride",1.707
same,Feed intake,[1]; [15],3189 g/bird
same,Weight gain,[1]; [15],1875^a g/bird
same,Depression of gain-corrected FCR,"[1]; main effect, 1 to 37 days",3.42%
same,Depression of feed efficiency,[1]; [16],2.46%
same,Depression of weight gain,[1]; [16],4.48%
same,Depression of growth rates,"[1]; main effect, entire feeding period",3.38%
same,Improvement in feed efficiency (FCR),"[1]; main effect, starter phase, 1 to 16 days post-hatch",3.77%
same,Breast weight,[2]; NC1 diets,526 g/bird
same,Breast meat yield,[2]; NC1 diets,25.7%
same,Fat pad weight,[2]; NC1 diets,14.7 g/bird
same,Breast weight,[2]; NC2 diets,625 g/bird
same,Breast meat yield,[2]; NC2 diets,26.9%
same,Fat pad weight,[2]; NC2 diets,18.4 g/bird
same,Breast weight,[2]; PC diets,660 g/bird
same,Breast meat yield,[2]; PC diets,28.3%
same,Fat pad weight,[2]; PC diets,17.3 g/bird
same,"Breast meat yield, phytase x betaine interaction mean",[2]; across diet types,27.0%
same,"Fat pad weight, phytase x betaine interaction mean",[2]; across diet types,16.8 g/bird
same,Decrease in fat pad weights by betaine HCl,[2]; in the absence of phytase,17.6%
same,Increase in fat pad weights by betaine HCl,[2]; in the presence of phytase,8.67%
same,Increase in breast meat yield (relative),[2]; main effect,1.91%
same,Increase in breast yield,[2]; main effect,0.5 percentage units
same,Breast weight,[2]; [17],624 g/bird
same,Breast weight,"[2]; main effect across diets, listed as betaine, hydrochloride",no influence
same,Breast meat yield,[2]; [17],26.7^b %
same,Fat pad weight,[2]; [17],19.1 g/bird
same,Breast meat yield,"[2]; main effect across diets, listed as Betaine HCl, hydrochloride",26.7%
same,Breast meat yield,[2]; [18],26.7%
same,Fat pad weight,[2]; [18],no effect
same,Toe ash,[3]; NC1 diets,11.15%
same,Toe ash,[3]; NC2 diets,12.29%
same,Toe ash,[3]; PC diets,11.99%
same,Toe ash,[3]; main effect across diets,12.07%
